The values below come from patent US20150045291A1, “LIPOPEPTIDE CONJUGATES COMPRISING SPHINGOLIPID AND HIV GP41 DERIVED PEPTIDES” (priority 2012, published 2015).

This assay concerns fully infectious HIV-1 HXB2. The conditions noted are these: for IC90: read-out: IC90 (nM), […].
The mark [1] stands for this setting: fully infectious HIV-1 system (Table 2).
Setting [2] is: read-out: IC50 (nM), […], fully infectious HIV-1 system (Table 3).
The mark [3] stands for this setting: fully infectious HIV-1 system (Table 3).
Where [4] appears, read: read-out: IC50 (inhibitory concentration at 50% infectivity), TZM-bl cells, fully contagious HXB2 HIV-1.

Where two headings read alike, the source gives them in different places. Starred links: 1 amine or outer side, 2 acyl side, 3 side chain; linkers in the order of their positions; H or OH if unused. Residues, ends and D or L forms follow the SMILES beside them. Groups on a side chain read outwards from the residue. *: point of attachment. Sphinganine = CCCCCCCCCCCCCCC[C@@H](O)[C@H](CO)N*; X2 = CCCCCCCCCCCCC/C=C/[C@@H](O)[C@H](CO)N*; CO = O=C([*:1])[*:2]

`CCCCCCCCCCCCCCC[C@@H](O)[C@H](CO)NC(=O)N[C@@H](CC(C)C)C(=O)N[C@@H](CCC(N)=O)C(=O)N[C@@H](C)C(=O)N[C@@H](CCCNC(=N)N)C(=O)N[C@H](C(=O)N[C@@H](CC(C)C)C(=O)N[C@@H](C)C(=O)N[C@H](C(=O)N[C@@H](CCC(=O)O)C(=O)N[C@@H](CCCNC(=N)N)C(=O)N[C@@H](Cc1ccc(O)cc1)C(=O)N[C@@H](CC(C)C)C(=O)N[C@@H](CCCCN)C(=O)N[C@@H](CC(=O)O)C(=O)N[C@@H](CCC(N)=O)C(=O)N[C@@H](CCC(N)=O)C(=O)N[C@@H](CC(C)C)C(N)=O)C(C)C)[C@@H](C)CC` [Sphing-ShN17, Sphinganine-LQARILAVERYLKDQQL] ({Sphinganine-CO}-LQARILAVERYLKDQQL-NH2): the IC50 under setting [1] was found to be 886 ± 102 nM.
The IC90 is the concentration at which the effect reaches the 90% level. On to `CC[C@H](C)[C@H](NC(=O)[C@H](CCC(=O)O)NC(=O)[C@H](CCCNC(=N)N)NC(=O)[C@H](CC(=O)O)NC(=O)[C@H](Cc1c[nH]c2ccccc12)NC(=O)[C@H](CCC(=O)O)NC(=O)[C@H](CCSC)NC(=O)[C@H](Cc1c[nH]c2ccccc12)NC(=O)[C@@H](NC(=O)[C@@H](N)[C@@H](C)O)[C@@H](C)O)C(=O)N[C@@H](CC(N)=O)C(=O)N[C@@H](CC(N)=O)C(=O)N[C@@H](Cc1ccc(O)cc1)C(=O)N[C@H](C(=O)N[C@@H](CCCCN)C(N)=O)[C@@H](C)O` [PBDK, TTWMEWDREINNYTK] (H-TTWMEWDREINNYTK-NH2; N-terminus and C-terminus assumed), for which, under setting [2], the IC50 was 5350 ± 1700 nM. Further, the IC90 under setting [3] is above 10000 nM.
As for `CCCCCCCCCCCCC/C=C/[C@@H](O)[C@H](CO)NC(=O)N[C@@H](CC(C)C)C(=O)N[C@@H](CC(C)C)C(=O)N[C@@H](CCC(N)=O)C(=O)N[C@@H](CC(C)C)C(=O)N[C@H](C(=O)N[C@H](C(=O)N[C@@H](Cc1c[nH]c2ccccc12)C(=O)NCC(=O)N[C@H](C(=O)N[C@@H](CCCCN)C(=O)N[C@@H](CCC(N)=O)C(=O)N[C@@H](CC(C)C)C(=O)N[C@@H](CCC(N)=O)C(=O)N[C@@H](C)C(=O)N[C@@H](CCCNC(=N)N)C(=O)N[C@H](C(=O)N[C@@H](CC(C)C)C(N)=O)[C@@H](C)CC)[C@@H](C)CC)C(C)C)[C@@H](C)O` [Sphingosine-N17, Sphingosine-LLQLTVWGIKQLQARIL] ({X2-CO}-LLQLTVWGIKQLQARIL-NH2), the IC50 under setting [4] came to 208 nM.
With `CCCCCCCCCCCCCCC[C@@H](O)[C@H](CO)NC(=O)N[C@@H](CC(C)C)C(=O)N[C@@H](CC(C)C)C(=O)N[C@@H](CCC(N)=O)C(=O)N[C@@H](CC(C)C)C(=O)N[C@H](C(=O)N[C@H](C(=O)N[C@@H](Cc1c[nH]c2ccccc12)C(=O)NCC(=O)N[C@H](C(=O)N[C@@H](CCCCN)C(=O)N[C@@H](CCC(N)=O)C(=O)N[C@@H](CC(C)C)C(=O)N[C@@H](CCC(N)=O)C(=O)N[C@@H](C)C(=O)N[C@@H](CCCNC(=N)N)C(=O)N[C@H](C(=O)N[C@@H](CC(C)C)C(=O)N[C@@H](CCCCN)C(N)=O)[C@@H](C)CC)[C@@H](C)CC)C(C)C)[C@@H](C)O` [Sphing-N17K, Sphinganine-LLQLTVWGIKQLQARILK] ({Sphinganine-CO}-LLQLTVWGIKQLQARILK-NH2), the IC50 is 118 ± 18 nM under setting [1] and 116 nM under setting [4].
For `CCCCCCCCCCCCCCC[C@@H](O)[C@H](CO)NC(=O)NCCCC[C@H](NC(=O)[C@H](CC(C)C)NC(=O)[C@@H](NC(=O)[C@H](CCCNC(=N)N)NC(=O)[C@H](C)NC(=O)[C@H](CCC(N)=O)NC(=O)[C@H](CC(C)C)NC(=O)[C@H](CCC(N)=O)NC(=O)[C@H](CCCCN)NC(=O)[C@@H](NC(=O)CNC(=O)[C@H](Cc1c[nH]c2ccccc12)NC(=O)[C@@H](NC(=O)[C@@H](NC(=O)[C@H](CC(C)C)NC(=O)[C@H](CCC(N)=O)NC(=O)[C@H](CC(C)C)NC(=O)[C@@H](N)CC(C)C)[C@@H](C)O)C(C)C)[C@@H](C)CC)[C@@H](C)CC)C(N)=O` [N17K-sphing, LLQLTVWGIKQLQARILK-Sphinganine] (H-LLQLTVWGIKQLQARILK([CO-Sphinganine])-NH2) the same measures were 291 ± 102 nM and 287 nM.
Turning to `CCCCCCCCCCCCCCC[C@@H](O)[C@H](CO)NC(=O)NCCCC[C@H](NC(=O)[C@H](CC(N)=O)NC(=O)[C@H](Cc1c[nH]c2ccccc12)NC(=O)[C@H](CCSC)NC(=O)[C@H](Cc1ccc(O)cc1)NC(=O)[C@H](CC(N)=O)NC(=O)[C@@H](NC(=O)[C@H](CC(=O)O)NC(=O)[C@H](CCC(=O)O)NC(=O)[C@H](CCCNC(=N)N)NC(=O)[C@H](Cc1c[nH]c2ccccc12)NC(=O)[C@@H](NC(=O)[C@H](CCC(=O)O)NC(=O)[C@@H](NC(=O)[C@@H](N)[C@@H](C)O)[C@@H](C)O)[C@@H](C)CC)[C@@H](C)O)C(N)=O` [Scrambled-Sphing, TTEIWREDTNYMWNK-sphing] (H-TTEIWREDTNYMWNK([CO-Sphinganine])-NH2; N-terminus assumed), the IC50 under setting [2] was determined as 895 ± 70 nM. The IC90 under setting [3] is 6260 ± 3670 nM.
On to `CCCCCCCCCCCCCCC[C@@H](O)[C@H](CO)NC(=O)NCCCC[C@H](NC(=O)[C@H](CC(N)=O)NC(=O)[C@H](CCCCN)NC(=O)[C@H](CCC(=O)O)NC(=O)[C@H](CCC(N)=O)NC(=O)[C@H](CCC(N)=O)NC(=O)[C@H](CC(N)=O)NC(=O)[C@H](CCC(N)=O)NC(=O)[C@H](CO)NC(=O)[C@H](CCC(=O)O)NC(=O)[C@H](CCC(=O)O)NC(=O)[C@@H](NC(=O)[C@H](CC(C)C)NC(=O)[C@H](CO)NC(=O)[C@H](Cc1c[nH]cn1)NC(=O)[C@@H](NC(=O)[C@H](CC(C)C)NC(=O)[C@H](CO)NC(=O)[C@@H](NC(=O)[C@@H](N)Cc1ccc(O)cc1)[C@@H](C)O)[C@@H](C)CC)[C@@H](C)CC)C(N)=O` [DP19K-sphing] (H-YTSLIHSLIEESQNQQEKNK([CO-Sphinganine])-NH2), for which the IC50 under setting [4] is 350 nM.
In turn, `CC[C@H](C)[C@H](NC(=O)[C@H](CCCNC(=N)N)NC(=O)[C@H](C)NC(=O)[C@H](CC(C)C)NC(=O)[C@H](CC(C)C)NC(=O)[C@H](CCC(N)=O)NC(=O)[C@H](CCCCN)NC(=O)[C@@H](NC(=O)[C@H](CCCCN)NC(=O)[C@H](Cc1c[nH]c2ccccc12)NC(=O)[C@H](CCC(N)=O)NC(=O)[C@@H](NC(=O)[C@H](CC(C)C)NC(=O)[C@H](CCC(N)=O)NC(=O)[C@H](CC(C)C)NC(=O)[C@@H](N)CCC(=O)O)[C@@H](C)O)[C@@H](C)CC)C(=O)N[C@@H](CC(C)C)C(=O)N[C@@H](CCCCN)C(N)=O` [N17mut (e, g) K, ELQLTQWKIKQLLARILK] (H-ELQLTQWKIKQLLARILK-NH2; C-terminus assumed) gave an IC50 under setting [1] above 4000 nM.
On the same count and under the same terms, to `CCCCCCCCCCCCCCC[C@@H](O)[C@H](CO)NC(=O)N[C@@H](CCC(=O)O)C(=O)N[C@@H](CC(C)C)C(=O)N[C@@H](CCC(N)=O)C(=O)N[C@@H](CC(C)C)C(=O)N[C@H](C(=O)N[C@@H](CCC(N)=O)C(=O)N[C@@H](Cc1c[nH]c2ccccc12)C(=O)N[C@@H](CCCCN)C(=O)N[C@H](C(=O)N[C@@H](CCCCN)C(=O)N[C@@H](CCC(N)=O)C(=O)N[C@@H](CC(C)C)C(=O)N[C@@H](CC(C)C)C(=O)N[C@@H](C)C(=O)N[C@@H](CCCNC(=N)N)C(=O)N[C@H](C(=O)N[C@@H](CC(C)C)C(=O)N[C@@H](CCCCN)C(N)=O)[C@@H](C)CC)[C@@H](C)CC)[C@@H](C)O` [Sphing-N17mut (e, g) K, Sphinganine-ELQLTQWKIKQLLARILK] ({Sphinganine-CO}-ELQLTQWKIKQLLARILK-NH2) belongs 120 ± 30 nM; to `CCCCCCCCCCCCCCC[C@@H](O)[C@H](CO)NC(=O)N[C@@H](CC(C)C)C(=O)N[C@@H](CC(C)C)C(=O)N[C@@H](CCC(N)=O)C(=O)N[C@@H](CC(C)C)C(=O)N[C@H](C(=O)N[C@H](C(=O)N[C@@H](Cc1c[nH]c2ccccc12)C(=O)NCC(=O)N[C@H](C(=O)N[C@@H](CCCCN)C(=O)N[C@@H](CCC(N)=O)C(=O)N[C@@H](CC(C)C)C(=O)N[C@@H](CCC(N)=O)C(=O)N[C@@H](C)C(N)=O)[C@@H](C)CC)C(C)C)[C@@H](C)O` [Sphing-N14, Sphinganine-LLQLTVWGIKQLQA] ({Sphinganine-CO}-LLQLTVWGIKQLQA-NH2), 500 ± 100 nM.
Consider `CCCCCCCCCCCCCCC[C@@H](O)[C@H](CO)NC(=O)NCCCC[C@H](NC(=O)[C@@H](NC(=O)[C@H](CCC(=O)O)NC(=O)[C@H](CCCNC(=N)N)NC(=O)[C@H](CC(=O)O)NC(=O)[C@H](Cc1c[nH]c2ccccc12)NC(=O)[C@H](CCC(=O)O)NC(=O)[C@H](CCSC)NC(=O)[C@H](Cc1c[nH]c2ccccc12)NC(=O)[C@@H](N)[C@@H](C)O)[C@@H](C)CC)C(N)=O` [Truncated-Sphing, TWMEWDREIK-Sphinganine] (H-TWMEWDREIK([CO-Sphinganine])-NH2; N-terminus assumed), for which, under setting [2], the IC50 was 1330 ± 270 nM. Moreover, the IC90 under setting [3] was 2480 ± 320 nM.
With `CCCCCCCCCCCCCCC[C@@H](O)[C@H](CO)NC(=O)NCCCC[C@H](NC(=O)[C@@H](NC(=O)[C@H](Cc1ccc(O)cc1)NC(=O)[C@H](CC(N)=O)NC(=O)[C@H](CC(N)=O)NC(=O)[C@@H](NC(=O)[C@H](CCC(=O)O)NC(=O)[C@H](CCCNC(=N)N)NC(=O)[C@H](CC(=O)O)NC(=O)[C@H](Cc1c[nH]c2ccccc12)NC(=O)[C@H](CCC(=O)O)NC(=O)[C@H](CCSC)NC(=O)[C@H](Cc1c[nH]c2ccccc12)NC(=O)[C@@H](NC(=O)[C@@H](N)[C@@H](C)O)[C@@H](C)O)[C@@H](C)CC)[C@@H](C)O)C(N)=O` [PBDK-Sphing, TTWMEWDREINNYTK-Sphinganine] (H-TTWMEWDREINNYTK([CO-Sphinganine])-NH2; N-terminus assumed), the IC50 under setting [2] was 467 ± 140 nM. Also, under setting [3], the concentration for an effect of 90% (IC90) was 1090 ± 100 nM.
`CC[C@H](C)[C@H](NC(=O)[C@H](CCC(N)=O)NC(=O)[C@H](CC(C)C)NC(=O)[C@H](Cc1c[nH]c2ccccc12)NC(=O)[C@H](CC(C)C)NC(=O)[C@@H](NC(=O)[C@H](CCC(N)=O)NC(=O)[C@H](CC(C)C)NC(=O)[C@H](CCCNC(=N)N)NC(=O)[C@H](C)NC(=O)[C@@H](NC(=O)[C@H](CCCCN)NC(=O)[C@@H](N)CCC(N)=O)[C@@H](C)CC)[C@@H](C)O)C(=O)NCC(=O)N[C@H](C(=O)N[C@@H](CC(C)C)C(=O)N[C@@H](CC(C)C)C(N)=O)C(C)C` [N17 scrambled, QKIARLQTLWLQIGVLL] (H-QKIARLQTLWLQIGVLL-NH2; C-terminus assumed) displayed an IC50 under setting [1] above 4000 nM.
